≈ marks a conversion by molar mass, not a printed value.

Three molecules from patent US20140010824A1 (priority 2012, published 2014) can be followed below.

Holding throughout (test): microbe, parasite or virus in culture
One test concerns Yptb(P^−) pGC1 (empty). It counts as cell-based. The settings on record: Yersinia pseudotuberculosis, read-out: minimum inhibitory concentration (MIC).
Test [1] has as its system Yptb(P^−) ΔmrtAB pGC1 (empty). It counts as cell-based. The settings on record: for MIC: Yersinia pseudotuberculosis, read-out: minimum inhibitory concentration (MIC).
Test [2] relates to Yptb(P^−) ΔmrtAB pmrtA^+B^+ flag. It counts as cell-based. To be noted: Yersinia pseudotuberculosis, read-out: minimum inhibitory concentration (MIC).
In test [3] the test system is Yptb(P^−) ΔmrtAB pmrtA^+B^+. It counts as cell-based. The settings on record: Yersinia pseudotuberculosis, read-out: minimum inhibitory concentration (MIC).
In a further test the test system is Yptb(P^−) pmrtA^+B^+. It counts as cell-based, Yersinia pseudotuberculosis. The settings on record: for MIC: Yersinia pseudotuberculosis, read-out: minimum inhibitory concentration (MIC).

For the molecule `CC[n+]1c(-c2ccccc2)c2cc(N)ccc2c2ccc(N)cc21` [ethidium bromide], the MIC in the test with Yptb(P^−) pGC1 (empty) was 25 µg/mL; in test [1], 25 µg/mL; in test [2], 100 µg/mL; in test [3] it was 100 µg/mL; in the test on Yptb(P^−) pmrtA^+B^+, 100 µg/mL.
Take `CN(C)c1ccc2cc3ccc(N(C)C)cc3nc2c1` [aeridine orange, N,N,N′,N′-tetramethylacridine-3,6-diamine]: the MIC (in the test with Yptb(P^−) pGC1 (empty); in test [1]; in test [3]; in the test with Yptb(P^−) pmrtA^+B^+) was 50 µg/mL (≈ 188 µM) throughout.
On to `Cn1c2cccc(=O)c-2nc2ccccc21` [pyocyanin], for which the MIC is 1 µg/mL (≈ 4.76 µM) with Yptb(P^−) pGC1 (empty); 1 µg/mL (≈ 4.76 µM) in test [1]; 0.25 µg/mL (≈ 1.19 µM) in test [2]; 0.25 µg/mL (≈ 1.19 µM) in test [3]; 0.25 µg/mL (≈ 1.19 µM) in the test with Yptb(P^−) pmrtA^+B^+. The “difference in MIC resulting from the absence of MrtAB” value in test [1] is “No difference was detected”. Also, the “change of susceptibility on expression of mrtAB on multi-copy plasmid (pACYC 184 derivative)” value in the test with Yptb(P^−) pmrtA^+B^+ is reported as “increased susceptibility”.
